Measurements: US20140358094A1, “COMPOSITION, THE NANO-EMULSION AND TRANSDERMAL PATCH, METHODS OF PREPARATION AND USE THEREOF FOR TREATING TRAUMATIC INJURIES” (Nano and Advanced Materials Institute Limited, priority 2013, published 2014)

Assay: In vitro skin diffusion study, vertical Franz diffusion cell, HPLC-ESI-MS of markers
Format: in vitro ADME, pig
Details: 24 hours; for elevation of diffusion properties, transdermal patch relative to herbal paste control, receiving medium: FIG. 4A, markers diffused in the receiving medium; for elevation of diffusion properties, transdermal patch relative to herbal paste control, pig skin: FIG. 4B, markers remained in the pig skin; for percentage by weight of marker in the receiving cell, Herbal Paste (Control) / percentage by weight of marker diffused to the dermis (remained in pig skin), Herbal Paste (Control): donor: herbal paste of Example 1; for percentage by weight of marker in the receiving cell, Herbal Paste (Control) / percentage by weight of marker in the receiving cell, Transdermal Patch (Test Sample) / percentage by weight of marker diffused to the dermis (remained in pig skin), Herbal Paste (Control) / percentage by weight of marker diffused to the dermis (remained in pig skin), Transdermal Patch (Test Sample): pig skin, 37° C.; for percentage by weight of marker in the receiving cell, Transdermal Patch (Test Sample) / percentage by weight of marker diffused to the dermis (remained in pig skin), Transdermal Patch (Test Sample): donor: transdermal patch of Example 4.2
Procedure: A vertical Franz diffusion cell (Hanson Research, USA) is used to carry out in vitro skin diffusion study. […] The receiving medium is formed by physiological saline solution of (0.9% NaCl). The donor compartment is filled with the test sample or control sample. […] After 24 hours, contents of the receiving cell and pig skin sample are collected, the solution from the receiving cell (i.e. receiving medium) and pig skin are detected for chemical markers found therein in order to analyze the transdermal diffusion rate of the test sample and control sample. The test is performed in triplicate. HPLC-ESI-MS is used to detect diffused markers and control sample. Agilent 1290 Infinity LC system (purchased from Agilent Technologies) having a vacuum device, a binary liquid pump, an autosampler, Agilent 6410 triple quadrupole (Triple Quad) LC/MS connected with a Agilent MassHunter computer software (Workstation) is used. Acquity UPLC HSS T3 1.8 μm (2.1 mm×150 mm) column is used and the Acquity UPLC is maintained a temperature of 40° C. […] The flow rate is controlled at 0.5 mL/min, and injection volume of 20 µL. MS analysis using Agilent 6410 triple quadrupole LC/MS configured with ESI MS is carried out under negative ion mode and multiple reaction monitoring modes. Target ions of HYA is m/z 611.2->325.0; Rg1 is m/z 799.5->637.4; […] is m/z 927.5->603.3; Rb1 is m/z 1107.6->119.0; Kae is m/z 285.0->117.0; Emo is m/z 269.0->241.0; Rhe is m/z 283.0->239.0 and OA is m/z 455.3->407.4.

| Compound | elevation of diffusion properties, transdermal patch relative to herbal paste control, receiving medium [times] | elevation of diffusion properties, transdermal patch relative to herbal paste control, pig skin [times] | percentage by weight of marker in the receiving cell, Herbal Paste (Control) (receiving medium 0.9% NaCl) [wt %] | percentage by weight of marker in the receiving cell, Transdermal Patch (Test Sample) (receiving medium 0.9% NaCl) [wt %] | percentage by weight of marker diffused to the dermis (remained in pig skin), Herbal Paste (Control) [wt %] | percentage by weight of marker diffused to the dermis (remained in pig skin), Transdermal Patch (Test Sample) [wt %] | detection in the receiving medium (in words) (receiving medium 0.9% NaCl) |
| --- | --- | --- | --- | --- | --- | --- | --- |
| CC(C)=CCC[C@](C)(O[C@@H]1O[C@H](CO)[C@@H](O)[C@H](O)[C@H]1O)[C@H]1CC[C@]2(C)[C@@H]1[C@H](O)C[C@@H]1[C@@]3(C)CC[C@H](O)C(C)(C)[C@@H]3[C@@H](O[C@@H]3O[C@H](CO)[C@@H](O)[C@H](O)[C@H]3O)C[C@]12C [Rg1, Ginsenoside Rg1] | 14 | 21 | 1.1884 | 16.3635 | – | – | – |
| Hydrosafflower yellow A [HYA] | 8 | 41 | 2.0879 | 16.5104 | 0.0117 | 0.4772 | – |
| CC1(C)CC[C@]2(C(=O)O)CC[C@]3(C)C(=CC[C@@H]4[C@@]5(C)CC[C@H](O)C(C)(C)[C@@H]5CC[C@]43C)[C@@H]2C1 [OA, Oleanolic Acid] | – | 47 | 0.0000 | 0.0000 | 0.1253 | 5.8588 | cannot be detected |
| Cc1cc(O)c2c(c1)C(=O)c1cc(O)cc(O)c1C2=O [Emo, Emodin] | 203 | 5 | 0.0091 | 1.8494 | 0.2773 | 1.3656 | – |
| CC1(C)CC[C@]2(C(=O)O[C@@H]3O[C@H](CO[C@@H]4O[C@H](CO)[C@@H](O)[C@H](O)[C@H]4O)[C@@H](O)[C@H](O)[C@H]3O)CC[C@]3(C)C(=CC[C@@H]4[C@@]5(C)CC[C@H](O[C@@H]6OC[C@H](O)[C@H](O)[C@H]6O)[C@@](C)(CO)[C@@H]5CC[C@]43C)[C@@H]2C1 [ASP6, Asperosaponin VI] | 32 | 33 | 0.1375 | 4.4904 | 0.0859 | 2.8010 | – |
| CC(C)=CCC[C@](C)(O[C@@H]1O[C@H](CO[C@@H]2O[C@H](CO)[C@@H](O)[C@H](O)[C@H]2O)[C@@H](O)[C@H](O)[C@H]1O)[C@H]1CC[C@]2(C)[C@@H]1[C@H](O)C[C@@H]1[C@@]3(C)CC[C@H](O[C@@H]4O[C@H](CO)[C@@H](O)[C@H](O)[C@H]4O[C@@H]4O[C@H](CO)[C@@H](O)[C@H](O)[C@H]4O)C(C)(C)[C@@H]3CC[C@]12C [Rb1, Ginsenoside Rb1] | 472 | 17 | 0.0167 | 7.8820 | – | – | – |
| O=C(O)c1cc(O)c2c(c1)C(=O)c1cccc(O)c1C2=O [Rhein] | 21 | 11 | 0.2299 | 4.8924 | 0.1371 | 1.4277 | – |
| O=c1c(O)c(-c2ccc(O)cc2)oc2cc(O)cc(O)c12 [Kae, Kaempferol] | 11 | 12 | 6.5294 | 72.3590 | 0.7532 | 9.0852 | – |
